Assays:
[1] = Oral bioavailability in Sprague-Dawley rat plasma at 10 mg/kg by LC-MS/MS analysis; format: ADME, organism-based; details: Sprague-Dawley, plasma
[2] = Clearance in Sprague-Dawley rat plasma at 1 mg/kg, iv and 10 mg/kg, po by LC-MS/MS analysis; format: ADME, organism-based
[3] = AUC in Sprague-Dawley rat plasma at 10 mg/kg, po by LC-MS/MS analysis; format: ADME, organism-based; parameters: dose 10 mg/kg, route oral; details: Sprague-Dawley, plasma
[4] = Aqueous solubility of the compound in water; format: physicochemical
[5] = AUC in po dosed CD-1 mouse by LC-MS/MS analysis; format: ADME, organism-based; details: plasma
Cytochrome P450 3A4 = Cytochrome P450 3A4 (Homo sapiens, UniProt P08684); test: Inhibition of CYP3A4; format: ADME
Cytochrome P450 3A4, sequence (P08684 whole entry): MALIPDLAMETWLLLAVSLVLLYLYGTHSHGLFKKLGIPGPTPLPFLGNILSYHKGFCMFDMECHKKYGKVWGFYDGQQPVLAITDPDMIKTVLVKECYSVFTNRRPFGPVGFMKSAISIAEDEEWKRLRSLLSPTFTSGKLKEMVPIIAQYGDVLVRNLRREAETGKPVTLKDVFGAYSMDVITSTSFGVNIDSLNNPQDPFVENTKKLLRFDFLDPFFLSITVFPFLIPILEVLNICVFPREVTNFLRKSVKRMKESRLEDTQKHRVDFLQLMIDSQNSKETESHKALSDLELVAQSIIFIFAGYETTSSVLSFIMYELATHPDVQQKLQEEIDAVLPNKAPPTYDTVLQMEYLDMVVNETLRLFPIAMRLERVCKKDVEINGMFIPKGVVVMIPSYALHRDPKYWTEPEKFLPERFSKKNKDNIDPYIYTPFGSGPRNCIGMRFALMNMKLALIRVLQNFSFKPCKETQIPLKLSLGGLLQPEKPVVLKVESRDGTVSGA

[6] = Antitumor activity against mouse M-NFS-60 cells xenografted in CD-1 nude mouse assessed as inhibition of tumor growth at 30 mg/kg, po measured after 4 of tumor implantation; format: functional; details: read-out: TGI
Rattus norvegicus [7] = test: Toxicity in rat at 200 mg/kg administered for 7 days; format: organism-based; parameters: dose 200 mg/kg; details: in vivo, 168 h
Rattus norvegicus [8] = test: Toxicity in rat assessed as effect on body weight at 800 mg/kg administered for 7 days; format: organism-based; parameters: dose 800 mg/kg; details: in vivo, 168 h
Rattus norvegicus [9] = test: Toxicity in rat assessed as diarrhea at 800 mg/kg administered for 7 days; format: organism-based; parameters: dose 800 mg/kg; details: in vivo, 168 h
[10] = Antitumor activity against mouse M-NFS-60 cells xenografted in CD-1 nude mouse assessed as inhibition of tumor growth at 100 mg/kg, po measured after 4 of tumor implantation; format: functional; details: read-out: TGI
Cytochrome P450 2C9 = Cytochrome P450 2C9 (Homo sapiens, UniProt P11712); test: Inhibition of CYP2C9; format: ADME
Cytochrome P450 2C9, sequence (P11712 whole entry): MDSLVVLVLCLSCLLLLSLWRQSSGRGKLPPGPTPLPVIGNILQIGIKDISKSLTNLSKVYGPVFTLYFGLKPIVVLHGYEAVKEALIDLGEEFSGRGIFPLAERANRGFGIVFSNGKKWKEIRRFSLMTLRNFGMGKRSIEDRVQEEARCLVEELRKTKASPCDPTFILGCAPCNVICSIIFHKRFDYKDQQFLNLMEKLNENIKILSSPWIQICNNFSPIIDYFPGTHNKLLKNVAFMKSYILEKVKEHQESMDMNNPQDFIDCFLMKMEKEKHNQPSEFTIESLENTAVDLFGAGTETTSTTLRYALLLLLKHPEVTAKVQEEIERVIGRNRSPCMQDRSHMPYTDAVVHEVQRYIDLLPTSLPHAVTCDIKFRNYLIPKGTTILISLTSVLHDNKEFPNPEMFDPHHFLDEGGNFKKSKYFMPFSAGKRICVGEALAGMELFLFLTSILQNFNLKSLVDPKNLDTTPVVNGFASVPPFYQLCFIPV

Rattus norvegicus [11] = test: Toxicity in rat assessed as mortality at 800 mg/kg administered for 7 days; format: organism-based; parameters: dose 800 mg/kg; details: in vivo, 168 h
[12] = target: T1, Mast/stem cell growth factor receptor Kit (Homo sapiens, UniProt P10721); test: Inhibition of KIT phosphorylation in human H526 cells; format: cell-based
T1 sequence (P10721 whole entry): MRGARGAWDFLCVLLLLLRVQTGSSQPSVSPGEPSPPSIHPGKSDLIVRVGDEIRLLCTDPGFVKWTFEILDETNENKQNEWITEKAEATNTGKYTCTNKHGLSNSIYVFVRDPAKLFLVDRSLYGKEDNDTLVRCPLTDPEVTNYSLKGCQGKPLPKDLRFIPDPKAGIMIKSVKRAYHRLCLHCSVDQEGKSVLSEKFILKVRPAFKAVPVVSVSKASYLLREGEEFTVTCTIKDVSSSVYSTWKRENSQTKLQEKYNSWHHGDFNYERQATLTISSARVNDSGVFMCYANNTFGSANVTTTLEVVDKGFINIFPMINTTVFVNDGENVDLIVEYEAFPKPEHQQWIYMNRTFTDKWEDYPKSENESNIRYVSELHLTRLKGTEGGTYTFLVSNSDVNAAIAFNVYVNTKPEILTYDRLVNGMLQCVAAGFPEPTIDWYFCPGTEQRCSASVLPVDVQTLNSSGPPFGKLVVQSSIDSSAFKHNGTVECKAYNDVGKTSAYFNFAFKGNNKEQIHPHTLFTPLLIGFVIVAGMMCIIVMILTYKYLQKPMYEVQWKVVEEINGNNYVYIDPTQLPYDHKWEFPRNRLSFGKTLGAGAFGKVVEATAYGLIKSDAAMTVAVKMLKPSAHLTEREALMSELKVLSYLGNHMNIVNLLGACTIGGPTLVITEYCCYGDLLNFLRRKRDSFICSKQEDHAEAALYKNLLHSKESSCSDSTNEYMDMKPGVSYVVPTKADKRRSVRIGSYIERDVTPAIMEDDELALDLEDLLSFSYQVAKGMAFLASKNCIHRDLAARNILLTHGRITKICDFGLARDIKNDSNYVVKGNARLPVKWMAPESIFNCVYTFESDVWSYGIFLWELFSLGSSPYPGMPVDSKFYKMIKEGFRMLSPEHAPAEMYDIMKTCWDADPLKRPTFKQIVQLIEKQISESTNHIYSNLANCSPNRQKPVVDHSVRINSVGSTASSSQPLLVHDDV

[13] = target: T1, Mast/stem cell growth factor receptor Kit; test: Binding affinity to KIT expressed in HEK-293 cells; format: cell-based, HEK293
Cytochrome P450 2C19 = Cytochrome P450 2C19 (Homo sapiens, UniProt P33261); test: Inhibition of CYP2C19; format: ADME
Cytochrome P450 2C19, sequence (P33261 whole entry): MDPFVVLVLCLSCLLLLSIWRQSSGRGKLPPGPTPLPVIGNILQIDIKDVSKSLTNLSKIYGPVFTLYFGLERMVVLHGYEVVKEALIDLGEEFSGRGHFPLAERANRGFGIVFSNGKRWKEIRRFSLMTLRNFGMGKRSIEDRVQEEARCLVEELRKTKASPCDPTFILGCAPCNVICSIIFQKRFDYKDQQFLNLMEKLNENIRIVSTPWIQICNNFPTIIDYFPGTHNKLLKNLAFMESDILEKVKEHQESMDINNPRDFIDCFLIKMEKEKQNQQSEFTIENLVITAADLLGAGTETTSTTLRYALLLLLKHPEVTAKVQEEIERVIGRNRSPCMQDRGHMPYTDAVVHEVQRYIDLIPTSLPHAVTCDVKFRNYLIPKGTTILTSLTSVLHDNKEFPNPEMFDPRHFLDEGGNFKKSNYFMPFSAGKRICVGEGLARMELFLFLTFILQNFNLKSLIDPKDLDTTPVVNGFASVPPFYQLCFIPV

Cytochrome P450 2D6 = Cytochrome P450 2D6 (Homo sapiens, UniProt P10635); test: Inhibition of CYP2D6; format: ADME
Cytochrome P450 2D6, sequence (P10635 whole entry): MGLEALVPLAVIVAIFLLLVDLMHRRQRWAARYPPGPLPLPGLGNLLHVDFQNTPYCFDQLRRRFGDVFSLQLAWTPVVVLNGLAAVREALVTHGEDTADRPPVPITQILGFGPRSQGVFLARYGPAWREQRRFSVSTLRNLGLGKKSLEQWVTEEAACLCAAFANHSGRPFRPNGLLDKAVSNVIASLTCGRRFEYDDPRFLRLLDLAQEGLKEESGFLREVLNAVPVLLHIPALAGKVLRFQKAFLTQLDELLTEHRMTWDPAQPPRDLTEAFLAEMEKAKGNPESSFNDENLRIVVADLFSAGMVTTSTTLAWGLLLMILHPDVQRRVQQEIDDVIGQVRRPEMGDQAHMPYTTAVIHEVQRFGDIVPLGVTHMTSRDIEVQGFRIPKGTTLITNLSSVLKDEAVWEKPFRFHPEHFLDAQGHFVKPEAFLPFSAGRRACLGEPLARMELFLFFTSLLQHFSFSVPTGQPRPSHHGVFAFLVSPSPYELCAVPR

Cytochrome P450 1A2 = target: T2, Cytochrome P450 1A2 (Homo sapiens, UniProt P05177); test: Inhibition of CYP1A2; format: ADME
T2 sequence (P05177 whole entry): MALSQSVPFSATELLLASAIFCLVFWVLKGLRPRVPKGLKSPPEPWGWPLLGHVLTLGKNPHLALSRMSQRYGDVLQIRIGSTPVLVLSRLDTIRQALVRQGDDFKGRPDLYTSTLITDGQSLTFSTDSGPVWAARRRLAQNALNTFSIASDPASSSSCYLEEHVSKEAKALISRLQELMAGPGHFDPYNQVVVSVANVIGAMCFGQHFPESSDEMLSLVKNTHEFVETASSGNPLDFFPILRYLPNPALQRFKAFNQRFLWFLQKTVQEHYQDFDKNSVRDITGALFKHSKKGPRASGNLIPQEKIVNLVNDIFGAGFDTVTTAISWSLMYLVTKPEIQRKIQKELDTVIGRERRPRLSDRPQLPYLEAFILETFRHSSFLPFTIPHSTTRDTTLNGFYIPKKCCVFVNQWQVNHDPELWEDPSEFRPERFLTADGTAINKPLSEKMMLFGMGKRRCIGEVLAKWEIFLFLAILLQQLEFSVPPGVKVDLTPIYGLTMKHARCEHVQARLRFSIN

CCN1CCC(c2ccc(C(=O)Nc3ccc(NC(=O)Nc4cc(C(C)(C)C)on4)cc3)nc2)CC1
bioavailability [1]: 9.9%
clearance [2]: 37.6 mL/min/kg
AUC [3]: 0.9 µM·h

CCN1CCC(Oc2ccc(C(=O)Nc3ccc(NC(=O)Nc4cc(C(C)(C)C)on4)cc3)nc2)CC1.CS(=O)(=O)O
solubility [4]: 1130 µg/mL

CC1(C)CC(Oc2ccc(C(=O)Nc3ccc(NC(=O)Nc4cc(C(C)(C)C)on4)cc3)nc2)CC(C)(C)N1
bioavailability [1]: 8%
clearance [2]: 11 mL/min/kg
AUC [3]: 2.4 µM·h

CC(C)(C)c1cc(NC(=O)Nc2ccc(NC(=O)c3cc(OC4CCNCC4)ccn3)cc2)no1
bioavailability [1]: 3%
clearance [2]: 35.8 mL/min/kg
AUC [3]: 0.4 µM·h

CN1C(C)(C)CC(Oc2ccc(C(=O)Nc3ccc(NC(=O)Nc4cc(C(C)(C)C)on4)cc3)nc2)CC1(C)C
AUC [5]: 65.8 µM·h
IC50 (Cytochrome P450 3A4): > 40 µM
inhibition in vivo at 30 mg/kg [6]: 82%
Activity (Rattus norvegicus [7]): Non-toxic
Activity (Rattus norvegicus [8]): Toxic
Activity (Rattus norvegicus [9]): Toxic
inhibition in vivo at 100 mg/kg [10]: 92%
IC50 (Cytochrome P450 2C9): > 40 µM
Activity (Rattus norvegicus [11]): Toxic
bioavailability [1]: 31.5%
clearance [2]: 10.9 mL/min/kg
IC50 [12]: 0.008 µM
Kd [13]: 0.0011 µM
IC50 (Cytochrome P450 2C19): > 40 µM
IC50 (Cytochrome P450 2D6): > 40 µM
AUC [3]: 9.1 µM·h
IC50 (Cytochrome P450 1A2): > 40 µM
